# Test results from article PMC5803421 (International journal of pharmaceutics, 2017).
# Tested on: anesthetized acute SCI female rats (bladder pressure)
# Assay: Isovolumetric cystometry in anesthetized acute spinal cord injured rats
# Format: in vivo, rat
# Conditions: antagonist 1 mg/kg i.v. after ODT LMN-NKA (4.6 mg/kg)
structure (smiles),measurement,value
COC1(C[S@@+]([O-])c2ccccc2)CCN(CCc2c[nH]c3ccc(F)cc23)CC1 [GR 159898],effect on LMN-NKA ODT mediated increase in bladder pressure,readily reversed
